Assay [1] concerns the target T1, Human CD73 (Homo sapiens, UniProt P21589).
T1 construct: purchased R&D Systems; host or cells: CHO cells
T1 sequence (P21589 27-549): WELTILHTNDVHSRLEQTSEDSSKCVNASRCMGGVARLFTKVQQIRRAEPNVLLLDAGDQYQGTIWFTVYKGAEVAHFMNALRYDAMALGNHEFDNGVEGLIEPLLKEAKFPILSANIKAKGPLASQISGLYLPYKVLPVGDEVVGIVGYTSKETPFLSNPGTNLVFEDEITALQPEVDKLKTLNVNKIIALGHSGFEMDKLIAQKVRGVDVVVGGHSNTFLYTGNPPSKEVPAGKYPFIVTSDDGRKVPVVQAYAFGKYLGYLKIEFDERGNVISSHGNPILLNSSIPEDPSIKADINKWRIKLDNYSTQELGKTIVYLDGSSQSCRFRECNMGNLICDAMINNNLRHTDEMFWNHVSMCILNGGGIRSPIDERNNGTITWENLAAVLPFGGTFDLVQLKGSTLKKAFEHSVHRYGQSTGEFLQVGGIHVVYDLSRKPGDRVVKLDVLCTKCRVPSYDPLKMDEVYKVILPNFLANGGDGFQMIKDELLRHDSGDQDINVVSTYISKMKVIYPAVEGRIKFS
In words: CD73 Enzyme Assay (EnzChek PNP/MESG kinetic readout of AMP hydrolysis). The conditions noted are these: 0.25 nM hCD73, 25 μM AMP; read-out: CD73 Enzyme Assay IC50. The assay is classed as biochemical. In short, it runs like this: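 Compounds tested as 15-point, 3-fold dilution series (300 μM to 0.0002 μM) in DMSO. Kinetic absorbance at 360 nm read every minute for 10–20 min, initial velocity taken from the linear portion.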

Assay [2] addresses T2, CD73 on U138 human neuroglioma cells (Homo sapiens, UniProt P21589).
T2 construct: U138 cells were obtained from ATCC and cultured in DMEM with 10% FBS; host or cells: U138 human neuroglioma cells
T2 sequence (P21589 27-549): T1 sequence (P21589 27-549)
In words: CD73 Cell-Based Assay (inorganic phosphate from AMP, malachite green). The conditions noted are these: AMP substrate, 2 hours at 37° C., read-out: CD73 Cell-Based assay IC50. In short, it runs like this:
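U138 cells, seeded the day before at 2500 per well, were washed and given AMP substrate (200 μM in the added mixture, before dilution into the buffer) together with compound. After 2 h at 37 °C in 5% CO2, inorganic phosphate in the supernatant was measured with malachite green.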

Results on 14 compounds are retold here after patent US12331068B2, “Compositions and methods for inhibiting CD73” (Peloton Therapeutics, Inc., priority 2018, dated 2025).

For the compound `N#Cc1c(Cl)nc2c(ccn2[C@@H]2O[C@H](CO[C@H](CO)P(=O)(O)O)[C@@H](O)[C@H]2O)c1N1CC2CCCC2C1` (stereo partly drawn) [Compound 50, ((1S)-1-(((2R,3S,4R,5R)-5-(6-chloro-5-cyano-4-(hexahydrocyclopenta[c]pyrrol-2 (1H)-yl)-1H-pyrrolo[2,3-b]pyridin-1-yl)-3,4-dihydroxytetrahydrofuran-2-yl)methoxy)-2-hydroxyethyl)phosphonic acid], the half-maximal inhibitory concentration (IC50) in assay [1] and in assay [2] was under 10 nM in each case.

For `N#Cc1c(Cl)nc2c(ccn2[C@@H]2O[C@H](COP(=O)(O)CP(=O)(O)O)[C@@H](O)[C@@H]2F)c1NC1CC(F)(F)C1` [Compound 228], the IC50 in assay [1] and in assay [2] was under 10 nM each time.

With `N#Cc1c(Cl)nc2c(cnn2[C@@H]2O[C@H](CS(=O)(=O)CP(=O)(O)O)[C@@H](O)[C@H]2O)c1NC1CCC(F)(F)CC1` [Compound 130], the IC50 in assay [1] and in assay [2] was under 10 nM each time.

`C[C@H](Nc1c(C#N)c(Cl)nc2c1cnn2[C@@H]1O[C@H](CS(=O)(=O)CP(=O)(O)O)[C@@H](O)[C@H]1O)c1cccc(F)c1` [Compound 180]: the IC50 in assay [1] and in assay [2] was under 10 nM in each case.

Consider `N#Cc1c(Cl)nc2c(cnn2[C@@H]2O[C@H](COP(=O)(O)CP(=O)(O)O)[C@@H](O)[C@H]2O)c1N1CC2CC2C1` (stereo partly shown) [Compound 72], for which the IC50 in assay [1] and in assay [2] was under 10 nM each time.

Consider `N#Cc1nc2c(ccn2[C@@H]2O[C@H](CS(=O)(=O)CP(=O)(O)O)[C@@H](O)[C@H]2O)c(N2C[C@@H](F)[C@@H](F)C2)c1Cl` [Compound 138], for which the IC50 – broadly, the concentration at which inhibition is half-maximal – in assay [1] was 10 to 100 nM; in assay [2], under 10 nM.

As for `N#Cc1c(Cl)nc2c(cnn2[C@@H]2O[C@H](COCP(=O)(O)O)[C@@H](O)[C@H]2O)c1N1C[C@@H](F)[C@@H](F)C1` [Compound 91, ((((2R,3S,4R,5R)-5-(6-chloro-5-cyano-4-((3S,4R)-3,4-difluoropyrrolidin-1-yl)-1H-pyrazolo[3,4-b]pyridin-1-yl)-3,4-dihydroxytetrahydrofuran-2-yl)methoxy)methyl)phosphonic acid], the IC50 in assay [1] and in assay [2] was under 10 nM in each case.

On to `N#Cc1c(Cl)nc2c(cnn2[C@@H]2O[C@H](COP(=O)(O)CP(=O)(O)O)[C@@H](O)[C@H]2O)c1NC1CCCC1` [Compound 244], for which the IC50 in assay [1] and in assay [2] was under 10 nM each time.

With `C[C@@H](Nc1c(C#N)c(Cl)nc2c1cnn2[C@@H]1O[C@H](COP(=O)(O)CP(=O)(O)O)[C@@H](O)[C@H]1O)c1ccccc1F` [Compound 248], the IC50 in assay [1] and in assay [2] was under 10 nM in each case.

With `N#Cc1nc2c(ccn2[C@@H]2O[C@H](COCP(=O)(O)O)[C@@H](O)[C@H]2O)c(NC2CCCC2)c1C#N` [Compound 104], the IC50 in assay [1] and in assay [2] was under 10 nM each time.

With `N#Cc1c(Cl)nc2c(ncn2[C@@H]2O[C@H](COCP(=O)(O)O)[C@@H](O)[C@H]2O)c1N1CC[C@H](F)C1` [Compound 84], the IC50 in assay [1] and in assay [2] was under 10 nM each time.

In the case of `N#Cc1c(Cl)nc2c(ccn2[C@@H]2O[C@H](CS(=O)(=O)CP(=O)(O)O)[C@@H](O)[C@H]2O)c1N[C@H]1C[C@@H](F)C1` [Compound 149], the IC50 in assay [1] and in assay [2] was under 10 nM in each case.

For the compound `NC(=O)c1c(Cl)nc2c(ccn2C2O[C@H](COCP(=O)(O)O)[C@@H](O)[C@H]2O)c1NC1CCCC1` (stereo partly shown) [Compound 39], the IC50 was under 10 nM in assay [1] and 10 to 100 nM in assay [2].

Take `N#Cc1c(Cl)nc2c(ccn2[C@@H]2O[C@H](CS(=O)(=O)CP(=O)(O)O)[C@@H](O)[C@H]2O)c1N1CC2CC2C1` (stereo partly shown) [Compound 22]: the IC50 in assay [1] and in assay [2] was under 10 nM in each case.
